Test results taken from PMC8691691 (ACS Chemical Neuroscience, 2021).
Changes are numbered by the printed parent chain. Where two headings read alike, the source gives them in different places.

Columns and labels:
Experiment in all cases: [3H]glycine transport by GlyT2 mutant in COS7 cells
Type in all cases: cell-based
GlyT2 I285F mutant = target: T1, GlyT2 I285F mutant (Rattus norvegicus, UniProt P58295, I285F)
T1 construct: expressed in transfected cells; host or cells: COS7
T1 sequence (P58295 1-799 I285F): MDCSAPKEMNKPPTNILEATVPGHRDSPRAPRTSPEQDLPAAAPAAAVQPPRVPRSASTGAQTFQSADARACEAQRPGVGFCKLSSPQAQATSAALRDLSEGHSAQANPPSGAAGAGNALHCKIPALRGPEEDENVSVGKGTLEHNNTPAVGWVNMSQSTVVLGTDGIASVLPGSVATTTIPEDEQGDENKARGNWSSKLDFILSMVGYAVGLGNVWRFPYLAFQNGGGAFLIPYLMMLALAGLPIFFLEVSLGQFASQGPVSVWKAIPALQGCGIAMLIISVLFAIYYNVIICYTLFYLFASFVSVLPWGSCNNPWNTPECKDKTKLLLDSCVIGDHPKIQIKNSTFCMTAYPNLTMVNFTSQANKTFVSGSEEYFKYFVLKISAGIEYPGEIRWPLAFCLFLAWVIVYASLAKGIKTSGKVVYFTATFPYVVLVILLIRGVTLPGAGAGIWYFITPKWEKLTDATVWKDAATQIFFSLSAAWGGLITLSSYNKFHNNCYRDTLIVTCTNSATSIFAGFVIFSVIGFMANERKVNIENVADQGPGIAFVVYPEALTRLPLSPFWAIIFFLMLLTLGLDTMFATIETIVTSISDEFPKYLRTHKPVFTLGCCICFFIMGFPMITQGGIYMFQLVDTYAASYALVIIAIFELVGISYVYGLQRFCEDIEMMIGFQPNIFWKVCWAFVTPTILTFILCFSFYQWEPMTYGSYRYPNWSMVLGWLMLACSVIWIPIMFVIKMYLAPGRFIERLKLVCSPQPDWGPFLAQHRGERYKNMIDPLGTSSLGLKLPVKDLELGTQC
Text: (§1) To validate the predicted interactions between the inhibitors and GlyT2, we used systematic site-directed mutagenesis to construct substitution mutants of the potential residues involved in ligand binding. […] The GlyT2 residues predicted to interact with the inhibitors through its side chain were replaced by amino acids expected to force the loss of the interaction. In the cases where the interaction occurred through the backbone, the inserted amino acid sought to alter the disposition of the substituted residue to lose the coordination.
(§2) Substitution mutants were generated with the QuikChange II Site-Directed Mutagenesis kit (Agilent Technologies, Santa Clara, CA, USA), using rGlyT2 or rGlyT1 subcloned in pCDNA3.[47] The complete coding region of all of the constructs was sequenced to verify that only the desired mutation had been introduced. […] COS7 cells were grown and transfected using Turbofect Transfection Reagent (Thermo Fisher Scientific, Waltham, MA, USA), following the manufacturer’s protocol (2 μL reagent/μg of DNA). Cells were incubated for 48 h at 37 °C until used.
(§3) At the end of the desired time (usually 10 min), reactions were washed and terminated by aspiration. […] A nonlinear curve fitting method was used to obtain IC50 values using Graphpad Prism software, version 6.0, Graphpad, San Diego, CA, USA.

GlyT2 I292C mutant = target: T2, GlyT2 I292C mutant (Rattus norvegicus, UniProt P58295, I292C)
T2 construct: expressed in transfected cells; host or cells: COS7
T2 sequence (P58295 1-799 I292C): T1 sequence (P58295 1-799 I285F) with F285I, I292C
Text: as §1, §2, §3

GlyT2 L576I mutant = target: T3, GlyT2 L576I mutant (Rattus norvegicus, UniProt P58295, L576I); conditions: for IC50: read-out: IC50 (Table S1)
T3 construct: expressed in transfected cells; host or cells: COS7
T3 sequence (P58295 1-799 L576I): T1 sequence (P58295 1-799 I285F) with F285I, L576I
Text: as §1, §2, §3

Row | Structure (SMILES) | IC50 (GlyT2 I285F mutant; read-out: IC50 (Table S1)) [nM] | IC50 (GlyT2 I292C mutant; read-out: IC50 (Table S1)) [nM] | effect of mutation on inhibition of glycine transport (GlyT2 L576I mutant; L576I, 1 μM inhibitor, 25 μM glycine) | IC50 (GlyT2 L576I mutant) [nM] | IC50 (GlyT2 I285F mutant) [nM] | IC50 (GlyT2 I292C mutant) [nM]
1 | N[C@@H](COC(c1cccc(F)c1)c1ccccc1OCc1ccccc1)C(=O)O (stereo partly shown) [ALX1393] | 91 ± 6 | 36 ± 4 | prevented the inhibition by ALX1393 to a greater extent than that of ORG25543 | 101 ± 22 | – | –
2 | COc1cc(C(=O)NCC2(N(C)C)CCCC2)cc(OC)c1OCc1ccccc1 [ORG25543, N-[[1-(dimethylamino)cyclopentyl]methyl]-3,5-dimethoxy-4-(phenylmethoxy)benzamide] | – | – | – | 111 ± 15 | 15 ± 4 | 24 ± 3
